We go through 30 compounds from US10329289B2, “6,7-dihydro-5H-pyrrolo[3,4-B]pyridin-5-one allosteric modulators of the M4 muscarinic acetylcholine receptor” (Merck Sharp & Dohme Corp., priority 2015, dated 2019).

SMILES strings stand for the structures.

For this test, the target named is T1, human M4 muscarinic acetylcholine receptor (Homo sapiens, UniProt P08173).
T1 construct: expressed in transfected cells; host or cells: CHO-K1
T1 sequence (P08173 1-479): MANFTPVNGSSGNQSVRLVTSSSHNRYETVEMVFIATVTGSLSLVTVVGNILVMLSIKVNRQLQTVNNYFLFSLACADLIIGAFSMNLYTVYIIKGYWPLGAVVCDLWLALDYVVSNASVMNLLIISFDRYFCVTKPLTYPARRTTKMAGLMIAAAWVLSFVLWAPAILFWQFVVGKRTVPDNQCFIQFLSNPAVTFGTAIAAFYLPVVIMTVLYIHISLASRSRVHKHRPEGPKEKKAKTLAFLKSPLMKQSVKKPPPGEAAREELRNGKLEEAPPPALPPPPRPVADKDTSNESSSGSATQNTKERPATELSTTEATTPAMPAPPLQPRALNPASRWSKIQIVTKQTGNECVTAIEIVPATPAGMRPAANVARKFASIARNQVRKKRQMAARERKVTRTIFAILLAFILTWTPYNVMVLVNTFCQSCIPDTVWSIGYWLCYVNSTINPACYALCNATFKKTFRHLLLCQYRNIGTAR
Kind of test: human FLIPR-based M4 PAM assay (Ca2+ mobilization, CHO-K1 cells with human M4 receptor and Gαqi5). Conditions: acetylcholine at 20% of maximum response, read-out: M4 PAM IP. In kind it is cell-based. Put shortly:
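Calcium-mobilization (FLIPR) readout in dye-loaded CHO-K1 cells co-expressing human M4 receptor and Gαqi5. Potentiation measured against acetylcholine at a concentration giving 20% of maximal response, with an optional 70% addition; the reported value is the curve inflection point from a 4-parameter logistic fit.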
On the technique in general: A change in cytosolic calcium serves as a functional read-out for many receptors and channels.
Take `Cc1c(N2CCC(Oc3ccc(F)cc3)CC2)nc2c(c1C)C(=O)N(C)[C@H]2CO` [Example 354, (R)-2-(4-(4-fluorophenoxy)piperidin-1-yl)-7-(hydroxymethyl)-3,4,6-trimethyl-6,7-dihydro-5H-pyrrolo[3,4-b]pyridin-5-one]: the EC50 was 1470 nM.

Regarding `Cc1cc(OC2CCN(c3nc4c(cc3C)C(=O)NC4)CC2)cnc1C` [Example 114, 2-(4-((5,6-dimethylpyridin-3-yl)oxy)piperidin-1-yl)-3-methyl-6,7-dihydro-5H-pyrrolo[3,4-b]pyridin-5-one], the EC50 came to 88 nM.

For the compound `Cc1cc2c(nc1N1CCC(Oc3ccc4c(c3)COC4)CC1)CN(CC(C)O)C2=O` (single isomer, unassigned) [Example 238A, (R) or (S)-2-(4-((1,3-dihydro-2-benzofuran-5-yl)oxy)piperidin-1-yl)-6-(2-hydroxypropyl)-3-methyl-6,7-dihydro-5H-pyrrolo[3,4-b]pyridin-5-one], the EC50 was found to be 87 nM.

For the compound `Cc1cc2c(nc1N1CCC(Oc3ccc4c(c3)COC4)CC1)CNC2=O` [Example 159, 2-[4-(1,3-Dihydro-2-benzofuran-5-yloxy)piperidin-1-yl]-3-methyl-6,7-dihydro-5H-pyrrolo[3,4-b]pyridin-5-one], the EC50 was 28 nM.

Consider `Cc1cc2c(nc1N1CCC(Oc3ccc4c(c3)CCC(C)(C)O4)CC1)CNC2=O` [Example 127, 2-(4-((2,2-dimethylchroman-6-yl)oxy)piperidin-1-yl)-3-methyl-6,7-dihydro-5H-pyrrolo[3,4-b]pyridin-5-one], for which the EC50 came to 480 nM.

Consider `CCc1cc2c(nc1N1CCC(Oc3ccc4c(cnn4C)c3)CC1)[C@@H](CO)N(C)C2=O` [Example 363, (S)-3-ethyl-7-(hydroxymethyl)-6-methyl-2-(4-((1-methyl-1H-indazol-5-yl)oxy)piperidin-1-yl)-6,7-dihydro-5H-pyrrolo[3,4-b]pyridin-5-one], for which the EC50 was 100 nM.

For the compound `Cc1cc2c(nc1N1CCC(Oc3ccc4[nH]ncc4c3)CC1)CN(C)C2=O` [Example 12, 2-(4-((1H-indazol-5-yl)oxy)piperidin-1-yl)-3,6-dimethyl-6,7-dihydro-5H-pyrrolo[3,4-b]pyridin-5-one], the EC50 amounted to 16 nM.

In the case of `CO[C@@H]1Cc2ccc(OC3CCN(c4nc5c(cc4C)C(=O)NC5)CC3)cc2C1` [Example 162A, (R)-2-(4-((2-methoxy-2,3-dihydro-1H-inden-5-yl)oxy)piperidin-1-yl)-3-methyl-6,7-dihydro-5H-pyrrolo[3,4-b]pyridin-5-one], the EC50 was determined as 59 nM.

Take `Cc1cc(OC2CCN(c3nc4c(cc3C)C(=O)NC4)CC2)ccc1F` [Example 108, 2-(4-(4-fluoro-3-methylphenoxy)piperidin-1-yl)-3-methyl-6,7-dihydro-5H-pyrrolo[3,4-b]pyridin-5-one]: the EC50 stood at 59 nM.

For the compound `Cc1cc(N2CCC(OCC3(C)CC3)CC2)nc2c1C(=O)NC2` [Example 224, 4-methyl-2-(4-((1-methylcyclopropyl)methoxy)piperidin-1-yl)-6,7-dihydro-5H-pyrrolo[3,4-b]pyridin-5-one], the EC50 came to 3520 nM.

As for `Cc1c(N2CC[C@@H](Oc3cnc4c(c3)COC4)[C@@H](F)C2)nc2c(c1C)C(=O)NC2` [Example 165A, 2-((3S,4R)-4-((5,7-dihydrofuro[3,4-b]pyridin-3-yl)oxy)-3-fluoropiperidin-1-yl)-3,4-dimethyl-6,7-dihydro-5H-pyrrolo[3,4-b]pyridin-5-one], the EC50 turned out to be 83 nM.

As for `Cc1cc2c(nc1N1[C@@H]3CC[C@H]1C[C@@H](Oc1ccc4c(cnn4C)c1)C3)CNC2=O` [Example 100, 3-methyl-2-(endo-3-((1-methyl-1H-indazol-5-yl)oxy)-8-azabicyclo[3.2.1]octan-8-yl)-6,7-dihydro-5H-pyrrolo[3,4-b]pyridin-5-one], the EC50 was found to be 1030 nM.

Regarding `CCOc1ccc(OC2CCN(c3nc4c(cc3C)C(=O)N(CCO)C4)CC2)cn1` [Example 254, 2-(4-((6-ethoxypyridin-3-yl)oxy)piperidin-1-yl)-6-(2-hydroxyethyl)-3-methyl-6,7-dihydro-5H-pyrrolo[3,4-b]pyridin-5-one], the EC50 turned out to be 69 nM.

With `Cc1cc2c(nc1N1CCC(Oc3ccccc3F)CC1)CNC2=O` [Example 75, 2-(4-(2-fluorophenoxy)piperidin-1-yl)-3-methyl-6,7-dihydro-5H-pyrrolo[3,4-b]pyridin-5-one], the EC50 stood at 236 nM.

On to `Cc1c(N2CCC(OCC3(C)CC3(F)F)CC2)nc2c(c1C)C(=O)N(CCO)C2` (stereo not drawn) [Example 259A, 2-(4-((2,2-difluoro-1-methylcyclopropyl)methoxy)piperidin-1-yl)-6-(2-hydroxyethyl)-3,4-dimethyl-6,7-dihydro-5H-pyrrolo[3,4-b]pyridin-5-one], for which the EC50 was 117 nM.

`Cc1cc2c(nc1N1CCC(Oc3ccc(F)c(F)c3)CC1)[C@@H](CO)N(C)C2=O` [Example 347, (S)-2-(4-(3,4-difluorophenoxy)piperidin-1-yl)-7-(hydroxymethyl)-3,6-dimethyl-6,7-dihydro-5H-pyrrolo[3,4-b]pyridin-5-one]: the EC50 amounted to 28 nM.

Regarding `COCCOc1ccc(OC2CCN(c3nc4c(cc3C)C(=O)NC4)CC2)cn1` [Example 171, 2-(4-((6-(2-methoxyethoxy)pyridin-3-yl)oxy)piperidin-1-yl)-3-methyl-6,7-dihydro-5H-pyrrolo[3,4-b]pyridin-5-one], the EC50 came out at 79 nM.

Turning to `Cc1cc2c(nc1N1CCC(Oc3cccc(C#N)c3)CC1)CN(C)C2=O` [Example 11, 3-((1-(3,6-dimethyl-5-oxo-6,7-dihydro-5H-pyrrolo[3,4-b]pyridin-2-yl)piperidin-4-yl)oxy)benzonitrile], the EC50 was 38 nM.

On to `CCOc1ccc(OC2CCN(c3nc4c(cc3C)C(=O)N[C@H]4CCO)CC2)cn1` [Example 234A, (S)-2-(4-((6-Ethoxypyridin-3-yl)ox)piperidin-1-yl)-7-(2-hydroxyethyl)-3-methyl-6,7-dihydro-5H-pyrrolo[3,4-b]pyridin-5-one], for which the EC50 is 382 nM.

`Cc1cc2c(nc1N1CCC(Oc3ccc(CO)cc3)CC1)CNC2=O` [Example 151, 2-(4-(4-(hydroxymethyl)phen-oxy)piperidin-1-yl)-3-methyl-6,7-dihydro-5H-pyrrolo[3,4-b]pyridin-5-one]: the EC50 was found to be 32 nM.

`Cc1cc2c(nc1N1CCC(Oc3ccc(OC(C)C)nc3)CC1)CNC2=O` [Example 62, 2-(4-((6-isopropoxypyridin-3-yl)oxy)piperidin-1-yl)-3-methyl-6,7-dihydro-5H-pyrrolo[3,4-b]pyridin-5-one]: the EC50 came out at 55 nM.

For `COc1ccc(OC2CCN(c3nc4c(cc3C)C(=O)N(C(=O)OC(C)(C)C)C4)CC2)cn1` [Example 299, tert-Butyl 2-(4-((6-methoxypyridin-3-yl)oxy)piperidin-1-yl)-3-methyl-5-oxo-5,7-dihydro-6H-pyrrolo[3,4-b]pyridine-6-carboxylate], the EC50 was determined as 265 nM.

With `Cc1ccc(OC2CCN(c3nc4c(cc3C)C(=O)NC4)CC2)cc1` [Example 83, 3-methyl-2-(4-(p-tolyloxy)piperidin-1-yl)-6,7-dihydro-5H-pyrrolo[3,4-b]pyridin-5-one], the EC50 was 48 nM.

In the case of `Cc1cc2c(nc1N1CCC(Oc3ccc(C(F)(F)F)nc3)CC1)CNC2=O` [Example 88, 3-methyl-2-(4-((6-(trifluoromethyl)pyridin-3-yl)oxy)piperidin-1-yl)-6,7-dihydro-5H-pyrrolo[3,4-b]pyridin-5-one], the EC50 amounted to 381 nM.

In the case of `C=Cc1c(C)c(N2CCC(Oc3ccc(OC)nc3)CC2)nc2c1C(=O)NC2` [Example 372, 2-(4-((6-Methoxypyridin-3-yl)oxy)piperidin-1-yl)-3-methyl-4-vinyl-6,7-dihydro-5H-pyrrolo[3,4-b]pyridin-5-one], the EC50 worked out at 634 nM.

In the case of `Cc1cc2c(nc1N1CCC(Oc3ccc(O)nc3)CC1)CNC2=O` [Example 326, 2-(4-((6-Hydroxypyridin-3-yl)ox)piperidin-1-yl)-3-methyl-6,7-dihydro-5H-pyrrolo[3,4-b]pyridin-5-one], the EC50 is 1660 nM.

As for `Cc1cc2c(nc1N1CCC(Oc3cccc(C#N)c3)CC1)[C@H](C)N(C)C2=O` [Example 28B, (S)-3-((1-(3,6,7-trimethyl-5-oxo-6,7-dihydro-5H-pyrrolo[3,4-b]pyridin-2-yl)piperidin-4-yl)oxy)benzonitrile], the EC50 amounted to 1980 nM.

As to `Cc1cc2c(nc1N1CC[C@@H](Oc3ccccc3)[C@@H](F)C1)CN(C)C2=O` [Example 241, 2-((3S,4R)-3-fluoro-4-phenoxypiperidin-1-yl)-3,6-dimethyl-6,7-dihydro-5H-pyrrolo[3,4-b]pyridin-5-one], the EC50 was 22 nM.

`Cc1cc2c(nc1N1CCC(Oc3ccnc(C#N)c3)CC1)CNC2=O` [Example 93, 4-((1-(3-methyl-5-oxo-6,7-dihydro-5H-pyrrolo[3,4-b]pyridin-2-yl)piperidin-4-yl)oxy)picolinonitrile]: the EC50 was 944 nM.

`Cc1cc2c(nc1N1CCC(Oc3cccc(C#N)c3)CC1)CN(P(=O)(O)O)C2=O` [Example 325, Ammonium (2-(4-(3-cyanophenoxy)piperidin-1-yl)-3-methyl-5-oxo-5,7-dihydro-6H-pyrrolo[3,4-b]pyridin-6-yl)phosphonate]: the EC50 was 204 nM.
